Experimental data taken from patent publication US20120129781A1, “COMPOSITION COMPRISING ALPHA-LIPOIC ACID AND CARNOSINE FOR TREATING THE PHANTOM LIMB SYNDROME” (DIFASS INTERNATIONAL S.R.L., priority 2009, published 2012).

Experiments:
[1] = tested on: phantom limb pain; conditions: literature reports (Smith et al. 2005; Bergmans et al. 2002); cited from earlier work
[2] = tested on: phantom limb syndrome; assay: Two-month daily oral treatment of lower-limb amputee patients affected by phantom limb syndrome (ASIS, VAS, McGill Pain Questionnaire, QoL at t0, 30 and 60 days); format: in vivo; conditions: lower-limb amputees, daily oral uptake for two months, evaluated at t0, 30 and 60 days
Excerpt: In order not to negatively influence the test, it was decided not to include the following in such groups: diabetic patients (in order to avoid interferences with the symptoms of diabetic neuropathy and with the drugs used by the diabetic patient), subjects with psychiatric pathologies also at a compensation stage, subjects with serious cognitive deficits, subjects affected by active hepatic and/or renal pathologies, subjects with organ pathologies and/or other serious comorbidities.
Group A (reference) was subdivided into two uniform groups A1 and A2; group A1 was subjected to a conventional treatment, orally taking for two months a daily dosage amount of the neuromodulator Gabapentin, a known anti-epileptic drug with indications in the treatment of neuropathic pain, as described in US patent application publication No. US 2006/159743. Group A2 was subjected to the same treatment, substituting the neuromodulator Gabapentin with the analogous neuromodulator Pregabalin.
Groups B and C were subjected, during the same two-month period, to a daily uptake of the composition 1 and, respectively, 2 of the present invention, in the same daily dosage amount of 1,200 mg.
This text is aimed at investigating how an amputee perceives their own body image. It is constituted by 20 points; the subjects are asked to indicate their answer by using a scale from 1 (never) to 5 (always). […]

| SMILES | effect on phantom limb pain (literature) [1] | phantom limb pain and stump pain (VAS and McGill Pain Questionnaire) [2] | phantom limb sensation (sensation of possession of the missing limb, ASIS Amputee Body Image Scale) [2] |
| --- | --- | --- | --- |
| CCC(=O)C(CC(C)N(C)C)(c1ccccc1)c1ccccc1 (stereo not drawn) [methadone] | effective reduction of the phantom limb pain |  |  |
| CC(C)C[C@H](CN)CC(=O)O [pregabalin] |  | only experienced a certain decrease of the pain | did not receive any benefit |
